Assay [1] relates to HeLa. The experiment in a line: Antiproliferative activity against human HeLa cells by MTT assay. The class given is functional, cell-based.
In assay [2] the test system is HepG2. As to the kind of experiment: Cytotoxicity against human HepG2 cells assessed as reduction in cell viability by MTT assay. To be noted: Homo sapiens, HepG2. The class given is functional, cell-based.
Assay [3] deals with MCF7. The experiment in a line: Cytotoxicity against human MCF7 cells assessed as reduction in cell viability by MTT assay. Format: functional, cell-based. To be noted: Homo sapiens, MCF7.
In a further assay the test system is NCI-H157. As to the kind of experiment: Cytotoxicity against human NCI-H157 cells assessed as reduction in cell viability after 48 hrs by SRB assay. Format: functional, cell-based. The note with it: NCI-H157, 48 h. Background: The SRB assay estimates cell density from bound dye.
A further assay relates to BHK-21. As to the kind of experiment: Cytotoxicity against BHK21 cells assessed as reduction in cell viability after 48 hrs by SRB assay. The class given is cell-based. The note with it: Mesocricetus auratus, BHK-21, 48 h.
In assay [4] the target is RAC-alpha serine/threonine-protein kinase (Homo sapiens, UniProt P31749). The experiment in a line: Inhibition of AKT phosphorylation in human K562 cells. Format: cell-based.
Assay [5] has as its system MCF7. As to the kind of experiment: Cytotoxicity against human MCF7 cells assessed as reduction in cell viability after 68 hrs by MTT assay. Format: functional, cell-based. To be noted: MCF7, 68 h. Background: Tetrazolium assays rely on reduction of a dye to a coloured formazan, in cell work by metabolically active cells.
Assay [6] concerns HeLa. The experiment in a line: Cytotoxicity against human HeLa cells assessed as reduction in cell viability after 68 hrs by MTT assay. Format: functional, cell-based.
The next assay concerns K562. As to the kind of experiment: Cytotoxicity against human K562 cells assessed as reduction in cell viability after 68 hrs by MTT assay. Format: functional, cell-based. The note with it: K562, 68 h.
The subject of assay [7] is A549. The experiment in a line: Cytotoxicity against human A549 cells assessed as reduction in cell viability after 68 hrs by MTT assay. The class given is functional, cell-based. The note with it: A549, 68 h.
Assay [8] has as its system HepG2. The experiment in a line: Cytotoxicity against human HepG2 cells assessed as reduction in cell viability. Format: functional, cell-based.
The next assay deals with DLD-1. The experiment in a line: Cytotoxicity against human DLD1 cells assessed as reduction in cell viability. Format: functional, cell-based.
Assay [9] deals with MCF7. The experiment in a line: Cytotoxicity against human MCF7 cells assessed as reduction in cell viability by SRB assay. Format: functional, cell-based.
A short description of assay [10]: Cytotoxicity against human MCF7/DX cells assessed as reduction in cell viability by SRB assay. The class given is functional, cell-based.
The subject of the next assay is DU-145. The experiment in a line: Cytotoxicity against human DU145 cells assessed as reduction in cell viability by SRB assay. Format: functional, cell-based.
The subject of a further assay is SK-OV-3. As to the kind of experiment: Cytotoxicity against human SKOV3 cells assessed as reduction in cell viability by SRB assay. The class given is functional, cell-based.
Assay [11] concerns A549. The experiment in a line: Cytotoxicity against human A549 cells assessed as reduction in cell viability by SRB assay. Format: functional, cell-based.
Assay [12] concerns HepG2. The experiment in a line: Cytotoxicity against human HepG2 cells assessed as reduction in cell viability by SRB assay. Format: functional, cell-based.
For assay [13], the system named is HeLa. As to the kind of experiment: Cytotoxicity against human HeLa cells assessed as reduction in cell viability by SRB assay. Format: functional, cell-based.

The structures appear in SMILES notation. ≈ marks a conversion by molar mass, not a printed value.

Chain of RAC-alpha serine/threonine-protein kinase (P31749 whole entry): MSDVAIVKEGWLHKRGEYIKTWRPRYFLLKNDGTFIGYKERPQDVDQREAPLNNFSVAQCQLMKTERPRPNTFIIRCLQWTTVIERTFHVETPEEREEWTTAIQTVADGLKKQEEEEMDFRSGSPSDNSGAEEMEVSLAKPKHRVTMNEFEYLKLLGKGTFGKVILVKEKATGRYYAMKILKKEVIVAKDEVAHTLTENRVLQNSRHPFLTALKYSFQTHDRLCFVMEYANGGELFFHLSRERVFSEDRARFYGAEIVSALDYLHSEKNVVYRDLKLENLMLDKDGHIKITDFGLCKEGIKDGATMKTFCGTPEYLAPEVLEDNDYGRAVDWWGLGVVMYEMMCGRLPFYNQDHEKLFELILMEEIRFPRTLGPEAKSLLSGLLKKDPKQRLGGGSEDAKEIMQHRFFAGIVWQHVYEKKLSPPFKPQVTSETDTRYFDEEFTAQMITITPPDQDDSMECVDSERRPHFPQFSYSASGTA

On to `CCOC(=O)c1sc(N/N=C(\C)c2cc3cc(Br)ccc3oc2=O)nc1C`, for which the IC50 (as a rule, the concentration that gives 50% inhibition) with HeLa [1] was in the range of 9.1 to 569 nM.
Regarding `Cc1ccc2oc(=O)cc(CSc3nc(-c4ccccc4)c(C#N)c(N4CCNCC4)n3)c2c1`, the half-inhibitory concentration (IC50) with HepG2 [2] and with MCF7 [3] was 5.5 to 91.1 µM each time.
As to `O=c1oc2ccccc2cc1-c1nnc2n1N=C(c1ccc(-c3ccccc3)cc1)CS2`, the IC50 with NCI-H157 and in the assay on BHK-21 was 1010 to 5720 nM in each case.
In the assay on HeLa [1], `CCOC(=O)c1sc(N/N=C(\C)c2cc3ccccc3oc2=O)nc1C` displayed a half-inhibitory concentration (IC50) of 9.1 to 569 nM.
`Cc1c(Cc2ccc(NC(=O)Nc3ccccc3Cl)nc2)c(=O)oc2cc(O)c(C(C)(C)C)cc12`: the IC50 in assay [4] is less than 10 µM; in the assay on MCF7 [5] it was 1.66 to 9.27 µM; in the assay with HeLa [6], 1.66 to 9.27 µM; with K562, 1.66 to 9.27 µM; in the assay on A549 [7], 1.66 to 9.27 µM.
`COc1ccc(C2=Nn3c(nnc3-c3cc4ccccc4oc3=O)SC2)cc1`: the concentration for half-maximal inhibition (IC50) with NCI-H157 and with BHK-21 was 1010 to 5720 nM throughout.
As for `CNc1ncc(C(=O)c2cc3ccccc3oc2=O)s1`, the IC50 with HepG2 [8] and in the assay on DLD-1 was 5.66 to 100 µg/mL (≈ 19.8 to 349 µM) each time.
In the assay with HeLa [1], `COC(=O)c1sc(N/N=C(\C)c2cc3ccccc3oc2=O)nc1C` yielded an IC50 of 9.1 to 569 nM.
Turning to `COC(=O)c1sc(N/N=C(\C)c2cc3cc(Br)ccc3oc2=O)nc1C`, the half-maximal inhibitory concentration (IC50) with HeLa [1] lay within 9.1 to 569 nM.
`CO/N=C1\C(=O)N(CCOCCOc2ccc3c(C)cc(=O)oc3c2)c2ccc(Cl)cc21`: the half-maximal inhibitory concentration (IC50) (in the assay on MCF7 [9]; in assay [10]; with DU-145; in the assay with SK-OV-3; in the assay on A549 [11]; in the assay with HepG2 [12]) was 10.3 to 50 µM throughout. The IC50 with HeLa [13] is 10.3 to 50 µM.
`O=c1oc2ccccc2cc1-c1nnc2n1N=C(c1ccc(Br)cc1)CS2`: the half-maximal inhibitory concentration (IC50) in the assay on NCI-H157 and in the assay on BHK-21 was 1010 to 5720 nM throughout.
For the compound `C/C(=N\Nc1ncc(C(=O)c2cc3ccccc3oc2=O)s1)c1ccc(C)cc1`, the EC50 with HepG2 [8] and in the assay on DLD-1 was 3.7 to 9.54 µg/mL (≈ 9.17 to 23.6 µM) in each case.
For the compound `C/C(=N\Nc1ncc(C(=O)c2cc3ccccc3oc2=O)s1)c1ccccc1`, the EC50 with HepG2 [8] and in the assay with DLD-1 was 3.7 to 9.54 µg/mL (≈ 9.5 to 24.5 µM) each time.
`Cc1c(Cc2ccc(NC(=O)Nc3cccc(Cl)c3)nc2)c(=O)oc2cc(O)c(C(C)(C)C)cc12`: the concentration for half-maximal inhibition (IC50) is less than 10 µM in [4]; 1.66 to 9.27 µM in the assay on MCF7 [5]; 1.66 to 9.27 µM in the assay with HeLa [6]; 1.66 to 9.27 µM in the assay with K562; 1.66 to 9.27 µM in the assay with A549 [7].
Consider `COc1ccc(NC(=O)Nc2ccc(Cc3c(C)c4cc(C(C)(C)C)c(O)cc4oc3=O)cn2)cc1`, for which the IC50 in assay [4] was less than 10 µM; in the assay on MCF7 [5], 1.66 to 9.27 µM; with HeLa [6] it was 1.66 to 9.27 µM; in the assay on K562, 1.66 to 9.27 µM; in the assay with A549 [7] it was 1.66 to 9.27 µM.
`Cc1cc(=O)oc2cc(/N=N/c3ccccc3)c(O)c(/N=N/c3ccccc3)c12`: in the assay with MCF7 [3], the IC50 turned out to be 1.87 µg/mL.
For the compound `Cc1ccc2oc(=O)cc(CSc3nc(-c4ccccc4)c(C#N)c(N4CCOCC4)n3)c2c1`, the IC50 with HepG2 [2] and in the assay with MCF7 [3] was 5.5 to 91.1 µM in each case.
Regarding `C=CCNc1ncc(C(=O)c2cc3ccccc3oc2=O)s1`, the IC50 in the assay on HepG2 [8] and in the assay on DLD-1 was 5.66 to 100 µg/mL (≈ 18.1 to 320 µM) each time.
As for `CC(=O)c1ccc(C2=Nn3c(nnc3-c3cc4ccccc4oc3=O)SC2)cc1`, the IC50 in the assay with NCI-H157 and in the assay with BHK-21 was 1010 to 5720 nM throughout.
Turning to `Cc1ccc2oc(=O)cc(CSc3nc(NCc4ccccc4)c(C#N)c(-c4ccccc4)n3)c2c1`, the IC50 in the assay with HepG2 [2] and in the assay with MCF7 [3] was 5.5 to 91.1 µM throughout.
Consider `Cc1c(Cc2ccc(NC(=O)Nc3ccc(F)cc3)nc2)c(=O)oc2cc(O)c(C(C)(C)C)cc12`, for which the IC50 in assay [4] is less than 10 µM; in the assay with MCF7 [5], 1.66 to 9.27 µM; with HeLa [6] it was 1.66 to 9.27 µM; in the assay with K562, 1.66 to 9.27 µM; with A549 [7], 1.66 to 9.27 µM.
In the case of `O=C(c1cnc(Nc2ccccc2)s1)c1cc2ccccc2oc1=O`, the IC50 in the assay on HepG2 [8] and with DLD-1 was 5.66 to 100 µg/mL (≈ 16.2 to 287 µM) each time.
As for `Cc1ccc2oc(=O)cc(CSc3nc(NN)c(C#N)c(-c4ccccc4)n3)c2c1`, the IC50 with HepG2 [2] came out at 5.5 µM; with MCF7 [3] it was 6.9 µM.
As for `CC[C@]1(O)C[C@H]2CN(CCc3c([nH]c4ccccc34)[C@@](C(=O)OC)(c3cc4c(cc3OC)N(C=O)[C@H]3[C@@](O)(C(=O)OC)[C@H](OC(C)=O)[C@]5(CC)C=CCN6CC[C@]43[C@@H]65)C2)C1` [VINCRISTINE], the results for the IC50 in the assay on NCI-H157 and in the assay on BHK-21 were 1030 nM and 1080 nM, respectively.

The record behind these values is ChEMBL document CHEMBL4373717, “Coumarin-containing hybrids and their anticancer activities” (Eur J Med Chem, 2019).
